Measurements as given in US11365199B2, “Pyrazole compounds as modulators of FSHR and uses thereof” (Merck Patent GmbH, priority 2013, dated 2022).

Target: T1, FSHR (Homo sapiens, UniProt P23945)
T1 construct: expressed in transfected cells; host or cells: CHO (Cho-FSHR-LUC-1-1-43)
T1 sequence (P23945 18-695): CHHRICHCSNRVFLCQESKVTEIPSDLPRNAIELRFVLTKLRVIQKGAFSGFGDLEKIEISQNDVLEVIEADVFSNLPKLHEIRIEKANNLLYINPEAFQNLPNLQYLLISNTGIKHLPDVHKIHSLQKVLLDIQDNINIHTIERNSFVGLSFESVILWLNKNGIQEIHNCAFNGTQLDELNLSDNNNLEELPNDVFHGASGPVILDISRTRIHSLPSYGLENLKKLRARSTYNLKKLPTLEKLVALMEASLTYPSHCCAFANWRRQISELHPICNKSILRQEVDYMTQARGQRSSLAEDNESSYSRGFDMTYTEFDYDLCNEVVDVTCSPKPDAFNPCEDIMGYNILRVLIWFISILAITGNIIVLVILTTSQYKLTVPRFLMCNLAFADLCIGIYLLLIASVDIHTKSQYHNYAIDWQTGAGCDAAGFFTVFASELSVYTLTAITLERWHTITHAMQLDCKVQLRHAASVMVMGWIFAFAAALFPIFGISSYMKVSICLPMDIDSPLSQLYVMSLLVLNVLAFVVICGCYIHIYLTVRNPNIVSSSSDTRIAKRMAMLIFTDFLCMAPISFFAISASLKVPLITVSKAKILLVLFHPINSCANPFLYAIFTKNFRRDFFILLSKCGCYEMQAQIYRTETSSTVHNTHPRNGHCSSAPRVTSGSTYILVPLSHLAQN
Experiment: EC50 of cyclic AMP production in CHO FSHR cells + EC20 FSH (Assay A)
Assay type: cell-based
Details: CHO FSHR cells + EC20 FSH, cAMP HTRF; read-out: Assay A: EC50 of cyclic AMP production
Description: EC50 of Cyclic AMP Production in CHO FSHR Cells+EC20 FSH (Assay A)
2500 Cho-FSHR-LUC-1-1-43 cells were plated per well in 5 μl of phenol red free DMEM/F12+1% FBS. Cells were plated in 384 well, solid white low volume plates (Greiner 784075) by Multidrop. Cells were assayed by adding 100 μl of 2×EC20 FSH/IBMX in DMEM/F12+0.1% BSA) by Multidrop to 2 μl of test compound stamped in 384 well plates (compounds are diluted 1:50). The final FSH concentration was […], and the final IBMX concentration was 200 μM. The compound plate map was as follows: Column 1: 2 μl of DMSO; Column 2: 2 μl of DMSO; Columns 3-12 and 13-24: 2 μl of test compound, diluted 1:4 in 100% DMSO, or 2 μl of FSH, diluted 1:4 in DMEM/F12+0.1% BSA. The starting concentration for FSH was 50 nM (final concentration was 0.5 nM). Furthermore, Column 23 contained 2 μl of EC100 FSH reference (100×) (diluted in DMEM/F12+0.1% BSA) at a final concentration of 0.5 nM, and Column 24 contained 2 μl of 1 mM AS707664/2 reference compound 2. 5 μl of compound+EC20 FSH mixture were transferred to cell plates (1:2 dilution into 5 μl of cell media) The plates were incubated at 37° C. for 1 h. 10 μl of mixed HTRF (CisBio #62AM4PEC) reagents were added per well and incubated at room temperature for 1 h. The plates were read on Envision using the cAMP HTRF—low volume 384 well protocol. The readout was the calculated fluorescence ratio (665 nm/620 nm). Values given in percent (%) indicate the percental effect (response) at a certain concentration of agonist relative to the maximum response of the FSH standard.

EC50 [nM]	SMILES
< 100	COc1cc2c(cc1-c1ccn(C)n1)-c1c(c(C(=O)N3CCN(C(C)=O)CC3(C)C)nn1-c1ccsc1)CO2 [Compound 216]
1000 to 5000	COc1cc2c(cc1-c1ccn(C)n1)-c1c(c(C(=O)NC3CC(O)C3)nn1-c1ccsc1)CO2 (centres unmarked) [Compound 137, 7-Methoxy-8-(1-methyl-1H-pyrazol-3-yl)-1-thiophen-3-yl-1,4-dihydro-chromeno[4,3-c]pyrazole-3-carboxylic acid (3-hydroxy-cyclobutyl)-amide]
100 to 1000	COc1cc2c(cc1-c1ccn(C)n1)-c1c(c(C(=O)NC3(C)COC3)nn1-c1ccsc1)CO2 [Compound 100, 7-Methoxy-8-(1-methyl-1H-pyrazol-3-yl)-1-thiophen-3-yl-1,4-dihydro-chromeno[4,3-c]pyrazole-3-carboxylic acid (3-methyl-oxetan-3-yl)-amide]
100 to 1000	COc1cc2c(cc1C=C(C)C)-c1c(c(C(=O)N3CCOCC3)nn1-c1ccsc1)CO2 [Compound 117, [7-Methoxy-8-(2-methyl-propenyl)-1-thiophen-3-yl-1,4-dihydro-chromeno[4,3-c]pyrazol-3-yl]-morpholin-4-yl-methanone]
< 100	COc1cc2c(cc1-c1c[nH]nc1C)-c1c(c(C(=O)N(C)C(C)(C)C)nn1-c1ccsc1)CO2 [Compound 71, 7-Methoxy-8-(3-methyl-1H-pyrazol-4-yl)-1-thiophen-3-yl-1,4-dihydro-chromeno[4,3-c]pyrazole-3-carboxylic acid tert-butyl-methyl-amide]
> 5000	COc1cc2c(cc1OC(C)C)-c1c(c(C(=O)NCCCN)nn1-c1ccsc1)CO2 [Compound 27, 8-Isopropoxy-7-methoxy-1-thiophen-3-yl-1,4-dihydro-chromeno[4,3-c]pyrazole-3-carboxylic acid (3-amino-propyl)-amide]
100 to 1000	COc1cc2c(cc1C=C(C)C)-c1c(c(C(=O)N3CCCC(N)CC3)nn1-c1ccsc1)CO2 (centres unmarked) [Compound 36, (4-Amino-azepan-1-yl)-[7-methoxy-8-(2-methyl-propenyl)-1-thiophen-3-yl-1,4-dihydro-chromeno[4,3-c]pyrazol-3-yl]-methanone]
1000 to 5000	COc1cc2c(cc1C=C(C)C)-c1c(c(C(=O)N3CCCC(NC(=O)OC(C)(C)C)CC3)nn1-c1ccsc1)CO2 (centres unmarked) [Compound 35, {1-[7-Methoxy-8-(2-methyl-propenyl)-1-thiophen-3-yl-1,4-dihydro-chromeno[4,3-c]pyrazole-3-carbonyl]-azepan-4-yl}-carbamic acid tert-butyl ester]
1000 to 5000	COc1cc2c(cc1C=C(C)C)-c1c(c(C(=O)NCCCNC(=O)C3CCC3)nn1-c1ccsc1)CO2 [Compound 57, 7-methoxy-8-(2-methyl-propenyl)-1-thiophen-3-yl-1,4-dihydro-chromeno[4,3-c]pyrazole-3-carboxylic Acid [3-(cyclobutanecarbonyl-amino)-propyl]-amide]
100 to 1000	[2H]C([2H])([2H])N(CCNC(=O)c1nn(-c2ccsc2)c2c1COc1cc(OC)c(C=C(C)C)cc1-2)C(C)=O [Compound 60]
100 to 1000	COc1cc2c(cc1-c1ccn(C)n1)-c1c(c(C(=O)N3CCNCC34CC4)nn1-c1ccsc1)CO2 [Compound 171, (4,7-Diaza-spiro[2.5]oct-4-yl)-[7-methoxy-8-(1-methyl-1H-pyrazol-3-yl)-1-thiophen-3-yl-1,4-dihydro-chromeno[4,3-c]pyrazol-3-yl]-methanone]
< 100	COc1cc2c(cc1-c1cnn(C(C)C)c1)-c1c(c(C(=O)N3CCOCC3(C)C)nn1-c1ccsc1)CO2 [Compound 191, (3,3-Dimethyl-morpholin-4-yl)-[8-(1-isopropyl-1H-pyrazol-4-yl)-7-methoxy-1-thiophen-3-yl-1,4-dihydro-chromeno[4,3-c]pyrazol-3-yl]-methanone]

The next lines start with the molecule.

SMILES	EC50 [nM]
CCn1nc(C)c(-c2cc3c(cc2OC)OCc2c(C(=O)N4CCOCC4(C)C)nn(-c4ccsc4)c2-3)c1C [Compound 204, (3,3-Dimethyl-morpholin-4-yl)-[8-(1-ethyl-3,5-dimethyl-1H-pyrazol-4-yl)-7-methoxy-1-thiophen-3-yl-1,4-dihydro-chromeno[4,3-c]pyrazol-3-yl]-methanone]	< 100
COc1cc2c(cc1-c1cc(C)n(C)c1C)-c1c(c(C(=O)N3CCOCC3(C)C)nn1-c1ccsc1)CO2 [Compound 120, (3,3-Dimethyl-morpholin-4-yl)-[7-methoxy-1-thiophen-3-yl-8-(1,2,5-trimethyl-1H-pyrrol-3-yl)-1,4-dihydro-chromeno[4,3-c]pyrazol-3-yl]-methanone]	< 100
[2H]C([2H])([2H])N(CCN1CCOC1=O)C(=O)c1nn(-c2ccsc2)c2c1COc1cc(OC)c(C=C(C)C)cc1-2 [Compound 56]	< 100
COc1cc2c(cc1-c1cnn(C)c1)-c1c(c(C(=O)N(C)C(C)(C)C)nn1-c1ccsc1)CO2 [Compound 66, 7-Methoxy-8-(1-methyl-1H-pyrazol-4-yl)-1-thiophen-3-yl-1,4-dihydro-chromeno[4,3-c]pyrazole-3-carboxylic acid tert-butyl-methyl-amide]	< 100
[2H]C([2H])([2H])N(C(=O)c1nn(-c2ccsc2)c2c1COc1cc(OC)c(-c3ccnn3C)cc1-2)C1(C)COC1 [Compound 118]	< 100
[2H]C([2H])([2H])O[C@@H]1CC[C@H](N(C(=O)c2nn(-c3ccsc3)c3c2COc2cc(OC)c(-c4ccn(C)n4)cc2-3)C([2H])([2H])[2H])C1 [Compound 177]	1000 to 5000
COc1cc2c(cc1OC(C)C)-c1c(c(C(=O)N(C)CCCN(C)C(=O)C3CCC3)nn1-c1ccsc1)CO2 [Compound 30]	100 to 1000
CNC(=O)c1nn(-c2ccsc2)c2c1COc1cc(OC)c(-c3cn[nH]c3)cc1-2 [Compound 22, 7-Methoxy-8-(1H-pyrazol-4-yl)-1-thiophen-3-yl-1,4-dihydro-chromeno[4,3-c]pyrazole-3-carboxylic Acid Methylamide]	1000 to 5000
COc1cc2c(cc1C=C(C)C)-c1c(c(C(=O)NCCCNC(C)=O)nn1-c1ccsc1)CO2 [Compound 8, 7-Methoxy-8-(2-methyl-propenyl)-1-thiophen-3-yl-1,4-dihydro-chromeno[4,3-c]pyrazole-3-carboxylic acid (3-acetylamino-propyl)-amide]	> 5000
COc1cc2c(cc1-c1c[nH]nc1C)-c1c(c(C(=O)NC3CC(O)C3)nn1-c1ccsc1)CO2 (centres unmarked) [Compound 138, 7-Methoxy-8-(3-methyl-1H-pyrazol-4-yl)-1-thiophen-3-yl-1,4-dihydro-chromeno[4,3-c]pyrazole-3-carboxylic acid (3-hydroxy-cyclobutyl)-amide]	> 5000
COc1cc2c(cc1-c1ccnn1C)-c1c(c(C(=O)NC3(C)COC3)nn1-c1ccsc1)CO2 [Compound 109, 7-Methoxy-8-(2-methyl-2H-pyrazol-3-yl)-1-thiophen-3-yl-1,4-dihydro-chromeno[4,3-c]pyrazole-3-carboxylic acid (3-methyl-oxetan-3-yl)-amide]	100 to 1000
COc1cc2c(cc1C=C(C)C)-c1c(c(C(=O)N3CCCC(C(=O)N(C)C)CC3)nn1-c1ccsc1)CO2 (centres unmarked) [Compound 41, 1-[7-Methoxy-8-(2-methyl-propenyl)-1-thiophen-3-yl-1,4-dihydro-chromeno[4,3-c]pyrazole-3-carbonyl]-azepane-4-carboxylic Acid Dimethylamide]	100 to 1000
COc1cc2c(cc1-c1cnc(C)n1C)-c1c(c(C(=O)N(C)C(C)(C)C)nn1-c1ccsc1)CO2 [Compound 92, 8-(2,3-Dimethyl-3H-imidazol-4-yl)-7-methoxy-1-thiophen-3-yl-1,4-dihydro-chromeno[4,3-c]pyrazole-3-carboxylic acid tert-butyl-methyl-amide]	< 100
[2H]C([2H])([2H])N(C(=O)c1nn(-c2ccsc2)c2c1COc1cc(OC)c(-c3ccn(C)n3)cc1-2)C1CCOC1 (centres unmarked) [Compound 140]	1000 to 5000
